# Tested on: USP8 MIT domain
# Test: Peptide-phage display-based deep mutational scanning (DMS), USP8 MIT domain
# Assay type: binding, human
# Details: bait USP8_MIT__P40818_1_142; EFCAB12 (Q6NXP0) 2-17; pair of mutant with wild-type wt_00016 (MDDDYEAYHSLFLSLL); sheet S3.B_ProP-PD_pairs
# Outline: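 Four rounds of phage selection against immobilized GST-tagged bait (GST control pre-clearing) at 4 °C, using human disorderome or 16-mer deep mutational scanning library (all non-Cys substitutions), ≥3 replicates. Enriched pools sequenced by Illumina NGS; replicate-summed counts converted to averaged fractions and frequency PSSMs per wild-type peptide.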
row,Sequence,hit_pair_ratio
1,MDDDYNAYHSLFLSLL [mut_04420],2.54
2,IDDDYEAYHSLFLSLL [mut_04327],43.89
3,MDDDYEFYHSLFLSLL [mut_04431],83.09
4,MDDDYTAYHSLFLSLL [mut_04425],48.27
5,MDFDYEAYHSLFLSLL [mut_04359],112.94
6,MDDDAEAYHSLFLSLL [mut_04393],42.41
7,MDDDFEAYHSLFLSLL [mut_04396],37.55
8,MDDDYPAYHSLFLSLL [mut_04421],1.34
9,MDDQYEAYHSLFLSLL [mut_04386],42.28
10,MMDDYEAYHSLFLSLL [mut_04347],37.58
11,MSDDYEAYHSLFLSLL [mut_04352],67.69
12,MDDHYEAYHSLFLSLL [mut_04379],28.27
13,MDDGYEAYHSLFLSLL [mut_04378],3.46
14,GDDDYEAYHSLFLSLL [mut_04325],7.04
15,MDDDYWAYHSLFLSLL [mut_04427],2.20
16,MDDEYEAYHSLFLSLL [mut_04376],3.28
17,MDDDYVAYHSLFLSLL [mut_04426],112.64
18,MDDFYEAYHSLFLSLL [mut_04377],337.92

# Same assay, conditions: bait USP8_MIT__P40818_1_142; MLPH 482-497; ratio of averaged fractions of wild-type/mutant peptide pair, larger over smaller (direction to be read from the two fractions)
row,Sequence,hit_pair_ratio
1,SEVSDFESRIAALRAA,49.08
2,SEVADIESRIAALRAA,7.79
3,SEVVDIESRIAALRAA,12.32
4,SEVSNIESRIAALRAA,3.89
5,SEVSDIESRIEALRAA,2.26
6,SEVSDIEDRIAALRAA,4.82
7,SEVSDIELRIAALRAA,4.11
8,SEVSDISSRIAALRAA,1.56
9,SEVSDIESRFAALRAA,9.56
10,SEVSDIESRIAAARAA,3.89
11,SEVSDIKSRIAALRAA,3.89

# Same assay, conditions: sheet S3.B_ProP-PD_pairs; bait USP8_MIT__P40818_1_142; ratio within the wild-type/mutant pair, larger over smaller averaged fraction (direction from fraction_wt and fraction_mut)
row,Sequence,hit_pair_ratio
1,SQVSDIESRIAALRAA,1.00
2,MDDDYEAYFSLFLSLL,29.21
3,SEPSDIESRIAALRAA,2.03
4,MDDDYEAYHALFLSLL,168.96
5,SLVSDIESRIAALRAA,1.11
6,LEVSDIESRIAALRAA,16.71
7,MDDDYEAYDSLFLSLL,337.92
8,MDDDYEAYHKLFLSLL,169.63
9,MDDDYEAYHSNFLSLL,168.96
10,MDDDYEAYHSLFLLLL,4.48
11,SSVSDIESRIAALRAA,24.28
12,MDDDYEAYHSLFLWLL,2.95
13,MDDDYEAYHSPFLSLL,169.63
14,SEGSDIESRIAALRAA,7.79
15,MDDDYEAYHSLFLYLL,8.88
16,MDDDYEANHSLFLSLL,42.28
17,MDDDYEAYHSLFLALL,2.81
18,MDDDYEAFHSLFLSLL,25.99
19,MDDDYEAYISLFLSLL,13.00
20,MDDDYEAYHWLFLSLL,1.50
21,WEVSDIESRIAALRAA,13.49
22,MDDDYEAYHPLFLSLL,19.88
23,QEVSDIESRIAALRAA,2.44
24,MDDDYEAYHSLKLSLL,30.72

# Reference: paper PMC12057046, “Elucidation of short linear motif-based interactions of the MIT and rhodanese domains of the ubiquitin-specific protease 8” (Biology Direct, 2025)
